Tests used:
[1] = In vitro assay of lysates of EUGT11-expressing cells after permeabilization treatment; assay type: biochemical, S. cerevisiae; conditions: lysates of EUGT11 transformants, untreated or after LiAC/PEG, Triton X100 or LS treatment
Method: Experiments were done to establish conditions for permeabilization in E. coli and in yeast. Growing cells (S. cerevisiae or E. coli) were treated with different concentrations/combinations of permeabilization agents: toluene, chloroform and ethanol for permeabilization of S. cerevisiae, and guanidine, lactic acid, DMSO and/or Triton X-100 for permeabilization of E. coli. Tolerance of both model organisms to high concentrations of RebA and other potential substrates also was evaluated. The permeabilization was measured by the amount of RebD produced from a EUGT11-expressing organism after incubation in a RebA containing medium (feeding experiment). Enzyme activity was monitored before and after exposure to the permeabilizing agents by lysing the cells and analyzing the activity of the released UGTs in an in vitro assay.
Treatment with Triton X-100 0.3% or 0.5%, however, increased the amount of RebD above background levels (see FIG. 18) while sustaining the activity of EUGT11. For Triton X-100 assays, overnight cultures were washed three times in PBS buffer. Cells corresponding to 6 OD600 units were resuspended in PBS containing 0.3% or 0.5% Triton X-100 respectively. […]
Lysates from transformants expressing EUGT11 were able to convert some RebA into RebD (8 to 50 μM were measured in the reactions) when cells were untreated or after treatment with LiAC/PEG or Triton X100.

[2] = Coupled AtSUS/EUGT11 reaction, RebD formation; assay type: biochemical; conditions: ~200 mM sucrose, 1 mM UDP, 100 μM RebA, GST-AtSUS1 and GST-EUGT11
Method: SUS catalyzes the formation of UDP-glucose and fructose from sucrose and from UDP as depicted in FIG. 11. This UDP-glucose then can be used by EUGT11 for glycosylation of RebA to produce RebD. In vitro assays as described above were performed, adding ˜200 mM sucrose, 1 mM UDP, 100 μM RebA, ˜1.6 μg purified GST-AtSUS1 and ˜0.8 μg GST-EUGT11. Formation of product, RebD, was evaluated by LC-MS. When AtSUS, EUGT11, sucrose and UDP were mixed with RebA, 81±5 μM of RebD was formed. The reaction was dependent on the presence of AtSUS, EUGT11 and sucrose. The conversion rate was similar to what has been observed previously using UDP-glucose provided extraneously.

[3] = UDP-glucose regenerating activity of sucrose synthase; assay type: biochemical; conditions: 1 mM UDP, ~200 mM sucrose, 37° C., 24 h
Method: Experiments were performed to evaluate the UDP-glucose regenerating activity of the purified GST-AtSUS1 and GST-SrSUS1. In vitro assays were conducted in 100 mM Tris-HCl pH=7.5 and 1 mM UDP (final concentration). Either ˜2.4 μg of purified GST-AtSUS1, ˜0.15 μg of GST-SrSUS1, or ˜1.5 μg commercial BSA (New England Biolabs, Ipswich, MA) were also added. Reactions were done in presence or absence of ˜200 mM sucrose and incubated at 37° C. for 24 h. Product UDP-glucose was measured by HPLC as described in the analytical section. AtSUS1 produced ˜0.8 mM UDP-glucose when sucrose was present. […] The lack of activity observed for SrSUS1 could be explained by the poor quality and concentration of the purified enzyme. UDP-glucose production by AtSUS1 was sucrose dependent and, therefore, it was concluded that AtSUS1 can be used in a coupled reaction to regenerate the UDP-glucose used by EUGT1 or other UGTs for small molecule glycosylation (FIG. 11, above).

ERG9 = assay: Amorphadiene production (indirect FPP accumulation), GC-MS; assay type: cell-based, S. cerevisiae; conditions: 72 h, construct in front of ERG9
Text: DNA fragments encompassing an ERG9 promoter upstream sequence (for homologous recombination), an expression cassette for the gene (NatR) that confers resistance to Nourseothricin, a CYC1 promoter (SEQ ID NO: 185, FIG. 21), a 5′ UTR sequence with a stemloop structure, and an ERG9 ORF sequence (for homologous recombination) were generated by PCR. DNA fragments that contained either the CYC1 promoter or the KEX2 promoter (SEQ ID NO: 186) but no stemloops were also generated as controls. The flanking ERG9 sequences for recombination as well as the stemloop structure were introduced via the PCR oligos. The DNA fragments were transformed into an S. cerevisiae host strain that subsequently was selected on nourseothricin containing growth plates. […]
The Amorpha-4,11-diene Synthase (ADS) gene catalyzes the chemical reaction that turns one FPP molecule into Amorpha-4,11-diene in the plant Artemisia annua. […] Amorpha-4,11-diene production was measured and compared to the standard compound caryophyllene, as described by (Ro et al. 2006. Nature 440(7086):940-943; Paradise et al. Biotechnol Bioeng. 2008 Jun. 1; 100(2):371-8; Newman et al. Biotechnol Bioeng 95(4):684-691).
Engineered yeast strains were grown in SC 2% glucose with uracil dropped out. […] 10 μl of the dodecane layer was sampled and diluted 100 fold in ethyl acetate for quantification by GC-MS […]

[4] = test system: Saccharomyces cerevisiae EFSC1923; assay: Steviol 19-O-monoside production in EFSC1923 with plasmid-expressed enzymes; assay type: cell-based; conditions: shake flask, co-expressed with KAH-3
Method: The 150 nucleotides at the 5′ end of the Zea mays CDP synthase coding sequence in Table 15 (SEQ ID NO:157, see FIG. 14) was deleted, the remainder of the coding sequence was provided with a new translation start ATG, and the truncated sequence was operably linked to the GPD1 promoter in the multicopy plasmid p423GPD in Saccharomyces cerevisiae EFSC1923. Plasmid p423GPD is described in Mumberg, D et al, Gene, 156: 119-122(1995). EFSC1923 and EFSC1923 plus p423GPD-Z.m.tCDPS were grown in for 96 hours in selective yeast medium containing 4% glucose. The amount of steviol 19-O-monoside produced by EFSC1923+p423GPD-Z.m.tCDPS (the truncated Zea mays CDPS) under these conditions was approximately 2.5 fold more than that produced by EFSC1923 without the plasmid.
The Arabidopsis thaliana KAH coding sequence from Table 15 was inserted in a multicopy plasmid designated p426GPD, under the control of the GPD1 promoter. Plasmid p426GPD is described in Mumberg, D et al, Gene. 156: 119-122(1995).
EFSC1923 was transformed with both p423GPD-Z.m.tCDPS and p426 p426GPD-A.t.KAH.
A bifunctional CDPS-KS from Gibberella fujikuroi (NCBI Accession no: Q9UVY5.1, FIG. 15) was cloned and compared to the truncated CDPS-5. […]

## CCCCCCCCCCCCN(C)CC(=O)O [LS, N-lauryl sarcosine]
[1]
  RebD measured in reactions of lysates: no RebD was measured

## AtSUS1: A. thaliana SUS1 sucrose synthase
[2]
  RebD formed: 81 ± 5 µM
[3]
  UDP-glucose produced: ~0.8 mM

## SEQ ID NO: 181: heterologous insert TGAATTCGTTAACGAATTC behind the CYC1 promoter in front of ERG9 (expressed or natural sequence)
ERG9
  increased production of amorphadiene: 2.5 ×

B1: bifunctional CDPS-KS: bifunctional CDPS-KS from Gibberella fujikuroi, NCBI Accession no Q9UVY5.1 (protein, listed as Gibberella fujikuroi)
chain: MPGKIENGTPKDLKTGNDFVSAAKSLLDRAFKSHHSYYGLCSTSCQVYDTAWVAMIPKTRDNVKQWLFPECFHYLLKTQAADGSWGSLPTTQTAGILDTASAVLALLCHAQEPLQILDVSPDEMGLRIEHGVTSLKRQLAVWNDVEDTNHIGVEFIIPALLSMLEKELDVPSFEFPCRSILERMHGEKLGHFDLEQVYGKPSSLLHSLEAFLGKLDFDRLSHHLYHGSMMASPSSTAAYLIGATKWDDEAEDYLRHVMRNGAGHGNGGISGTFPTTHFECSWIIATLLKVGFTLKQIDGDGLRGLSTILLEALRDENGVIGFAPRTADVDDTAKALLALSLVNQPVSPDIMIKVFEGKDHFTTFGSERDPSLTSNLHVLLSLLKQSNLSQYHPQILKTTLFTCRWWWGSDHCVKDKWNLSHLYPTMLLVEAFTEVLHLIDGGELSSLFDESFKCKIGLSIFQAVLRIILTQDNDGSWRGYREQTCYAILALVQARHVCFFTHMVDRLQSCVDRGFSWLKSCSFHSQDLTWTSKTAYEVGFVAEAYKLAALQSASLEVPAATIGHSVTSAVPSSDLEKYMRLVRKTALFSPLDEWGLMASIIESSFFVPLLQAQRVEIYPRDNIKVDEDKYLSIIPFTWVGCNNRSRTFASNRWLYDMMYLSLLGYQTDEYMEAVAGPVFGDVSLLHQTIDKVIDNTMGNLARANGTVHSGNGHQHESPNIGQVEDTLTRFTNSVLNHKDVLNSSSSDQDTLRREFRTFMHAHITQIEDNSRFSKQASSDAFSSPEQSYFQWVNSTGGSHVACAYSFAFSNCLMSANLLQGKDAFPSGTQKYLISSVMRHATNMCRMYNDFGSIARDNAERNVNSIHFPEFTLCNGTSQNLDERKERLLKIATYEQGYLDRALEALERQSRDDAGDRAGSKDMRKLKIVKLFCDVTDLYDQLYVIKDLSSSMK
[4]
  activity in producing steviol 19-O-monoside relative to EFSC1923 with the KAH-3 alone: about 5.8 times

— patent publication US12416034B2, “Recombinant production of steviol glycosides” (EVOLVA SA, priority 2011, dated 2025)
